What all share (type): cell-based
For data set [1], the system named is human multiple myeloma NCI-H929 cells. Put plainly: Growth inhibition test on human multiple myeloma NCI-H929 cells (WST-1, % viability). The following applies: test compound 10 μmol/L, cells without test compound = 100%. How it is done:
(§1) Ten thousand cells of human multiple myeloma NCI-H929 were inoculated into each well of a 96-well microplate (manufactured by Nunc Corp.), and using RPMI medium (culture medium) containing 10% FCS, preculturing was performed in a 5% carbon dioxide incubator at 37° C. for 24 hours. A DMSO solution of each test compound prepared in a concentration of 10 mmol/L was diluted with the culture medium to a final concentration of 10 μmol/L, and the diluted solution was added to each well. The individual wells were further cultured in the 5% carbon dioxide incubator at 37° C. for 72 hours. After completion of the culturing, 10 μL of WST-1 labeled mixture (manufactured by Roche Diagnostic Corp.) was added to each well, and culturing was performed in the 5% carbon dioxide incubator at 37° C. for 2 hours. Using a microplate spectrophotometer (SpectraMax 340PC384; manufactured by Nihon Molecular Devices), the absorbance of each well was measured at 450 nm and 655 nm. The value obtained by subtracting the absorbance at 450 nm from the absorbance at 655 nm (absorbance difference) was calculated for each well. The value for cells not incorporated with a test compound was designated as 100%, and the value at a well not containing cells was designated as 0%. By comparing these values with the absorbance difference obtained at the well in which each test compound was added, the cell viability (% viability) after treatment with the test compound was calculated.

Data set [2] concerns human chronic lymphocytic leukemia-derived MEC-1 cells. Put plainly: Growth inhibition test on human chronic lymphocytic leukemia-derived MEC-1 cells (WST-1, % viability). The following applies: test compound 10 μmol/L, 72 hours, cells without test compound = 100%. How it is done:
Ten thousand cells of human chronic lymphocytic leukemia-derived MEC-1 were inoculated into each well of a 96-well microplate (manufactured by Nunc Corp.), and using RPMI1640 medium (culture medium) containing 10% FCS, preculturing was performed in a 5% carbon dioxide incubator at 37° C. for 1 hour. A DMSO solution of each test compound prepared in a concentration of 10 mmol/L was diluted with the culture medium to a final concentration of 10 μmol/L, and the diluted solution was added to each well. The individual wells were further cultured in the 5% carbon dioxide incubator at 37° C. for 72 hours. After completion of the culturing, 10 μL of WST-1 labeled mixture (manufactured by Roche Diagnostic Corp.) was added to each well, and culturing was performed in the 5% carbon dioxide incubator at 37° C. for 3 hours. Using a microplate spectrophotometer (M-SPmax 250; manufactured by Molecular Devices Corp.), the absorbance of each well was measured at 450 nm and 655 nm. The value obtained by subtracting the absorbance at 450 nm from the absorbance at 655 nm (absorbance difference) was calculated for each well. The value for cells not incorporated with a test compound was designated as 100%, and the value at a well not containing cells was designated as 0%. By comparing these values with the absorbance difference obtained at the well in which each test compound was added, the cell viability (% viability) after treatment with the test compound was calculated.

Data set [3] relates to human renal cancer OS-RC-2 cells. Description: Growth inhibition test on human renal cancer OS-RC-2 cells (WST-1, % viability). The following applies: test compound 10 μmol/L, 72 hours, cells without test compound = 100%. How it is done:
as §1, with “One” for “Ten”, “renal cancer OS-RC-2” for “multiple myeloma NCI-H929”, “RPMI1640” for “RPMI”, “(Model 550;” for “(SpectraMax 340PC384;”, “Bio-Rad),” for “Nihon Molecular Devices),”
(Tetrazolium dyes change colour on reduction, which living cells bring about.)

For data set [4], the system named is human lung cancer NCI-H596 cells. Put plainly: Growth inhibition test on human lung cancer NCI-H596 cells (WST-1, % viability). The following applies: test compound 10 μmol/L, cells without test compound = 100%. How it is done:
as §1, with “Four” for “Ten”, “lung cancer NCI-H596” for “multiple myeloma NCI-H929”, “RPMI1640” for “RPMI”, “(Model 550;” for “(SpectraMax 340PC384;”, “Bio-Rad),” for “Nihon Molecular Devices),”

Data set [5] has as its system human prostate cancer 22Rv1 cells. Description: Growth inhibition test on human prostate cancer 22Rv1 cells (WST-1, % viability). The settings on record: test compound 10 μmol/L, 72 hours, cells without test compound = 100%. How it is done: as §1, with “Five” for “Ten”, “prostate cancer 22Rv1” for “multiple myeloma NCI-H929”, “RPMI1640” for “RPMI”, “(Model 550;” for “(SpectraMax 340PC384;”, “Bio-Rad),” for “Nihon Molecular Devices),”

With `CCOc1ccc(C(=O)c2c(O)cc(O)c(CC)c2CC(=O)N(CCO)CCOC)cc1` [Compound 122], the “Viability of tumor cells (% viability), Human multiple myeloma NCI-H929 cells” value in data set [1] was 0%. For the same compound, the “Viability of tumor cells (% viability), Human chronic lymphocytic leukemia MEC-1 cells” value in data set [2] is given as 4%. Besides, the “Viability of tumor cells (% viability), Human renal cancer OS-RC-2 cells” value in data set [3] amounted to 15%. Moreover, the “Viability of tumor cells (% viability), Human lung cancer NCI-H596 cells” value in data set [4] came to 15%. The “Viability of tumor cells (% viability), Human prostate cancer 22Rv1 cells” value in data set [5] is 5%.

In the case of `CCc1c(O)cc(O)c(C(=O)c2ccc(OC)cc2)c1CC(=O)N1CCN(c2ccccc2C#N)CC1` [Compound 17], in data set [1], the “Viability of tumor cells (% viability), Human multiple myeloma NCI-H929 cells” value came out at 0%. In addition, in data set [2], the “Viability of tumor cells (% viability), Human chronic lymphocytic leukemia MEC-1 cells” value is on record as 4%. Also, the “Viability of tumor cells (% viability), Human renal cancer OS-RC-2 cells” value in data set [3] came to 20%. In addition, in data set [4], the “Viability of tumor cells (% viability), Human lung cancer NCI-H596 cells” value was 16%. Further, the “Viability of tumor cells (% viability), Human prostate cancer 22Rv1 cells” value in data set [5] was 5%.

Consider `CCc1c(O)cc(O)c(C(=O)c2ccc(OCCN3CCOCC3)c(OC)c2)c1CC(=O)N(CCOC)CCOC` [Compound 125], for which the “Viability of tumor cells (% viability), Human multiple myeloma NCI-H929 cells” value in data set [1] was 0%. For the same compound, the “Viability of tumor cells (% viability), Human chronic lymphocytic leukemia MEC-1 cells” value in data set [2] is 5%. In data set [3], the “Viability of tumor cells (% viability), Human renal cancer OS-RC-2 cells” value was 20%. Moreover, in data set [4], the “Viability of tumor cells (% viability), Human lung cancer NCI-H596 cells” value was determined as 17%. Further, in data set [5], the “Viability of tumor cells (% viability), Human prostate cancer 22Rv1 cells” value worked out at 5%.

Turning to `CCc1c(O)cc(O)c(C(=O)c2ccc(OCCN3CCOCC3)c(OC)c2)c1CC(=O)N(CCOC)CCOC.Cl` [Compound 139], in data set [1], the “Viability of tumor cells (% viability), Human multiple myeloma NCI-H929 cells” value amounted to 0%. In addition, the “Viability of tumor cells (% viability), Human chronic lymphocytic leukemia MEC-1 cells” value in data set [2] is reported as 5%. Also, in data set [3], the “Viability of tumor cells (% viability), Human renal cancer OS-RC-2 cells” value stood at 21%. For the same compound, the “Viability of tumor cells (% viability), Human lung cancer NCI-H596 cells” value in data set [4] was found to be 16%. The “Viability of tumor cells (% viability), Human prostate cancer 22Rv1 cells” value in data set [5] was determined as 5%.

As to `CCc1c(O)cc(O)c(C(=O)c2ccc(O)c(OC)c2)c1CC(=O)N(CCOC)CCOC` [Compound 106], the “Viability of tumor cells (% viability), Human multiple myeloma NCI-H929 cells” value in data set [1] was determined as 0%. In addition, in data set [2], the “Viability of tumor cells (% viability), Human chronic lymphocytic leukemia MEC-1 cells” value is 4%. In addition, the “Viability of tumor cells (% viability), Human renal cancer OS-RC-2 cells” value in data set [3] is 16%. The “Viability of tumor cells (% viability), Human lung cancer NCI-H596 cells” value in data set [4] is given as 12%. Further, the “Viability of tumor cells (% viability), Human prostate cancer 22Rv1 cells” value in data set [5] is recorded as 5%.

For the compound `CCc1c(O)cc(O)c(C(=O)c2ccc(OC)c(OC)c2)c1CC(=O)N(CCO)CCOC` [Compound 56], the “Viability of tumor cells (% viability), Human multiple myeloma NCI-H929 cells” value in data set [1] was 0%. The “Viability of tumor cells (% viability), Human chronic lymphocytic leukemia MEC-1 cells” value in data set [2] is 4%. Also, the “Viability of tumor cells (% viability), Human renal cancer OS-RC-2 cells” value in data set [3] amounted to 18%. Moreover, the “Viability of tumor cells (% viability), Human lung cancer NCI-H596 cells” value in data set [4] was determined as 20%. In addition, the “Viability of tumor cells (% viability), Human prostate cancer 22Rv1 cells” value in data set [5] is 5%.

Regarding `CCc1c(O)cc(O)c(C(=O)c2ccsc2)c1CC(=O)N(CCO)CCOC` [Compound 151], the “Viability of tumor cells (% viability), Human multiple myeloma NCI-H929 cells” value in data set [1] was found to be 0%. In data set [2], the “Viability of tumor cells (% viability), Human chronic lymphocytic leukemia MEC-1 cells” value was determined as 4%. The “Viability of tumor cells (% viability), Human renal cancer OS-RC-2 cells” value in data set [3] is recorded as 30%. Also, in data set [4], the “Viability of tumor cells (% viability), Human lung cancer NCI-H596 cells” value was 28%. In data set [5], the “Viability of tumor cells (% viability), Human prostate cancer 22Rv1 cells” value worked out at 5%.

Take `CCc1c(O)cc(O)c(C(=O)c2ccc(OC(C)C)cc2)c1CC(=O)N(CCO)CCOC` [Compound 124]: the “Viability of tumor cells (% viability), Human multiple myeloma NCI-H929 cells” value in data set [1] was determined as 0%. For the same compound, the “Viability of tumor cells (% viability), Human chronic lymphocytic leukemia MEC-1 cells” value in data set [2] is listed as 4%. For the same compound, in data set [3], the “Viability of tumor cells (% viability), Human renal cancer OS-RC-2 cells” value was determined as 15%. The “Viability of tumor cells (% viability), Human lung cancer NCI-H596 cells” value in data set [4] stood at 15%. Also, in data set [5], the “Viability of tumor cells (% viability), Human prostate cancer 22Rv1 cells” value was determined as 5%.

With `CCc1c(O)cc(O)c(C(=O)c2ccc(OC)cc2)c1CC(=O)N(CCO)Cc1ccco1` [Compound 69], the “Viability of tumor cells (% viability), Human multiple myeloma NCI-H929 cells” value in data set [1] was found to be 0%. In data set [2], the “Viability of tumor cells (% viability), Human chronic lymphocytic leukemia MEC-1 cells” value is 4%. Also, the “Viability of tumor cells (% viability), Human renal cancer OS-RC-2 cells” value in data set [3] is 16%. Moreover, the “Viability of tumor cells (% viability), Human lung cancer NCI-H596 cells” value in data set [4] came to 15%. Also, in data set [5], the “Viability of tumor cells (% viability), Human prostate cancer 22Rv1 cells” value was 5%.

On to `CCc1c(O)cc(O)c(C(=O)c2ccc(C(F)(F)F)cc2)c1CC(=O)N(CCO)CCOC` [Compound 144], for which the “Viability of tumor cells (% viability), Human multiple myeloma NCI-H929 cells” value in data set [1] came to 0%. Also, the “Viability of tumor cells (% viability), Human chronic lymphocytic leukemia MEC-1 cells” value in data set [2] is reported as 4%. Further, the “Viability of tumor cells (% viability), Human renal cancer OS-RC-2 cells” value in data set [3] is on record as 16%. Besides, in data set [4], the “Viability of tumor cells (% viability), Human lung cancer NCI-H596 cells” value worked out at 14%. Besides, the “Viability of tumor cells (% viability), Human prostate cancer 22Rv1 cells” value in data set [5] turned out to be 5%.

For the compound `CCc1c(O)cc(O)c(C(=O)c2ccc(OC)cc2)c1CC(=O)N(CCO)CCO` [Compound 13], the “Viability of tumor cells (% viability), Human multiple myeloma NCI-H929 cells” value in data set [1] amounted to 0%. In data set [2], the “Viability of tumor cells (% viability), Human chronic lymphocytic leukemia MEC-1 cells” value came to 7%. In addition, the “Viability of tumor cells (% viability), Human renal cancer OS-RC-2 cells” value in data set [3] came out at 66%. Moreover, the “Viability of tumor cells (% viability), Human lung cancer NCI-H596 cells” value in data set [4] is 35%. Besides, the “Viability of tumor cells (% viability), Human prostate cancer 22Rv1 cells” value in data set [5] stood at 6%.

The values above are taken from patent US20090042883A1, “ANTITUMOR AGENT” (KYOWA HAKKOKOGYO CO., priority 2005, published 2009).
